Strand notation (5' to 3'): a small letter for the sugar, then the base; units joined by * are phosphorothioate-linked, units joined directly phosphodiester-linked; [ ] holds rarer units or linkages, { } end groups; capitals alone tell only the bases. {(C15)2U} = uridine bearing a ketal whose carbon carries two C15 hydrocarbon chains (palmitone ketal); {C8F17} = hydrophobic mono-chain with C8F17 fluorocarbon moiety; d = 2'-deoxy (DNA)
Experiments:
[1] = tested on: TCTP protein and cell growth; assay: Screening of ASOs targeting TCTP mRNA for the lead sequence; assay type: cell-based, human; details: 15 sequences tested
Protocol: The design, synthesis and screening of ASOs targeting TCTP mRNA were performed to determine the lead sequence. Among the 27 sequences, 12 were withdrawn (lack of specificity, high GC percentage) and 15 have been tested among which, 3 have been selected (#10 of sequence SEQ ID NO: 2, #14 of sequence SEQ ID NO: 7, #15 of sequence SEQ ID NO: 6) for their efficiency to inhibit TCTP protein and cell growth.

cell membrane = assay: Penetration of the cell membrane; assay type: cell-based; details: compared with ASO#15PTO
TCTP protein = TCTP protein expression by western blot in transfected PC-3 cells; assay type: cell-based, human; details: for inhibition of TCTP protein expression over a long period: 6 days after transfection
Protocol: The CR prostate cancer cell line PC-3 was purchased from the American Type Culture Collection (Rockville, Md., USA). The cells were maintained in Dulbecco's Modified Eagle's Medium (Invitrogen, Cergy Pontoise, France), supplemented with 10% fetal calf serum (FCS).
Prostatic cell line were transfected with ASO#15PD, ASO#15PTO, LASO#15PD, LASO#15PTO and LASO#15LNA at various concentrations (from 30 nM to 100 nM), in OptiMEM® medium (Invitrogen), without serum and in the presence or not of Oligofectamine™ transfection reagent (Invitrogen), according to the manufacturer's instructions.
Serum was added 4 hours after transfection. Two or three days after transfection, the level of TCTP protein expression and GAPDH (used as housekeeping gene) were determined by performing western blotting.
Western Blot analysis was performed as described previously (Rocchi et al., 2004, Cancer Res. 64:6595-602) with 1:2000 rabbit TCTP polyclonal antibody (Abcam Inc., Cambridge, UK). Loading levels were normalized using 1:5000 rabbit anti-glyceraldehyde-3-phosphate dehydrogenase polyclonal (Abcam Inc.).
Prostatic cell line were transfected with FASO#15PTO at 100 nM, in OptiMEM® medium (Invitrogen), without serum and in the presence or not of Oligofectamine™ transfection reagent (Invitrogen), according to the manufacturer's instructions.

Row | Substance | efficiency to inhibit TCTP protein and cell growth [1] | inhibition of TCTP protein expression over a long period (TCTP protein) | also measured
1 | 5′-AACTTGTTTCCTGCAGGTGA-3′ (antisense (5'-AACTTGTTTCCTGCAGGTGA-3'); as printed in the source, key not given here) [#15] | selected | – | –
2 | 5′-ACCAATGAGCGAGTCATCAA-3′ (antisense (5'-ACCAATGAGCGAGTCATCAA-3'); as printed in the source, key not given here) [#10] | selected | – | –
3 | 5′-TGGTTCATGACAATATCGAC-3′ (antisense (5'-TGGTTCATGACAATATCGAC-3'); as printed in the source, key not given here) [#14] | selected | – | –
4 | (C15)2U*5′AAC TTG TTT CCT GCA GGT GA3′ (DNA {(C15)2U}*dA*dA*dC*dT*dT*dG*dT*dT*dT*dC*dC*dT*dG*dC*dA*dG*dG*dT*dG*dA) [LASO#15PTO] | – | strong to complete inhibition | speed of penetrating the cell membrane (cell membrane): more quickly than ASO#15PTO; inhibition of TCTP protein expression (TCTP protein; PC-3, in absence of transfection agent, 3 days after transfection): able to inhibit; inhibition of TCTP protein expression (TCTP protein; PC-3, in the presence of Oligofectamine, 30-100 nM, 2 or 3 days after transfection): most efficient
5 | ASO#15PTO: DNA of sequence SEQ ID NO: 6 with a phosphorothiorate backbone (DNA dA*dA*dC*dT*dT*dG*dT*dT*dT*dC*dC*dT*dG*dC*dA*dG*dG*dT*dG*dA) [reference compound] | – | not the case | –
6 | Flurocarbon 5′AAC TTG TTT CCT GCA GGT GA3′ (DNA {C8F17}-dA*dA*dC*dT*dT*dG*dT*dT*dT*dC*dC*dT*dG*dC*dA*dG*dG*dT*dG*dA) [FASO#15PTO, reference compound] | – | – | inhibition of TCTP protein expression (TCTP protein; PC-3, 100 nM, absence of Oligofectamine, 3 days after transfection): incapable of inhibiting; inhibition of TCTP protein expression (TCTP protein; PC-3, 100 nM, presence of Oligofectamine, 3 days after transfection): incapable of inhibiting

Reference: patent US9701962B2, “Hydrophobically modified antisense oligonucleotides comprising a ketal group” (Institut National de la Sante et de la Recherche Medicale …, priority 2013, dated 2017)
